Laboratory results from ChEMBL document CHEMBL4342507, “Targeting YAP Degradation by a Novel 1,2,4-Oxadiazole Derivative via Restoration of the Function of the Hippo Pathway” (ACS Med Chem Lett, 2020).
Calls of active or inactive are those of the source. No cut-off for these calls is given here.

Tests used:
[1] = biological target: Epidermal growth factor receptor (Homo sapiens) (UniProt P00533); assay: Induction of EGFR degradation in human MDA-MB-231 cells assessed as suppression of EGFR expression at 0.05 to 0.6 uM by Western blot analysis; assay type: cell-based
[2] = biological target: Hepatocyte growth factor receptor (Homo sapiens) (UniProt P08581); assay: Induction of c-MET degradation in human MDA-MB-231 cells assessed as suppression of c-MET expression at 0.05 to 0.6 uM by Western blot analysis; assay type: cell-based
Hepatocyte growth factor receptor (Homo sapiens), sequence (P08581 whole entry): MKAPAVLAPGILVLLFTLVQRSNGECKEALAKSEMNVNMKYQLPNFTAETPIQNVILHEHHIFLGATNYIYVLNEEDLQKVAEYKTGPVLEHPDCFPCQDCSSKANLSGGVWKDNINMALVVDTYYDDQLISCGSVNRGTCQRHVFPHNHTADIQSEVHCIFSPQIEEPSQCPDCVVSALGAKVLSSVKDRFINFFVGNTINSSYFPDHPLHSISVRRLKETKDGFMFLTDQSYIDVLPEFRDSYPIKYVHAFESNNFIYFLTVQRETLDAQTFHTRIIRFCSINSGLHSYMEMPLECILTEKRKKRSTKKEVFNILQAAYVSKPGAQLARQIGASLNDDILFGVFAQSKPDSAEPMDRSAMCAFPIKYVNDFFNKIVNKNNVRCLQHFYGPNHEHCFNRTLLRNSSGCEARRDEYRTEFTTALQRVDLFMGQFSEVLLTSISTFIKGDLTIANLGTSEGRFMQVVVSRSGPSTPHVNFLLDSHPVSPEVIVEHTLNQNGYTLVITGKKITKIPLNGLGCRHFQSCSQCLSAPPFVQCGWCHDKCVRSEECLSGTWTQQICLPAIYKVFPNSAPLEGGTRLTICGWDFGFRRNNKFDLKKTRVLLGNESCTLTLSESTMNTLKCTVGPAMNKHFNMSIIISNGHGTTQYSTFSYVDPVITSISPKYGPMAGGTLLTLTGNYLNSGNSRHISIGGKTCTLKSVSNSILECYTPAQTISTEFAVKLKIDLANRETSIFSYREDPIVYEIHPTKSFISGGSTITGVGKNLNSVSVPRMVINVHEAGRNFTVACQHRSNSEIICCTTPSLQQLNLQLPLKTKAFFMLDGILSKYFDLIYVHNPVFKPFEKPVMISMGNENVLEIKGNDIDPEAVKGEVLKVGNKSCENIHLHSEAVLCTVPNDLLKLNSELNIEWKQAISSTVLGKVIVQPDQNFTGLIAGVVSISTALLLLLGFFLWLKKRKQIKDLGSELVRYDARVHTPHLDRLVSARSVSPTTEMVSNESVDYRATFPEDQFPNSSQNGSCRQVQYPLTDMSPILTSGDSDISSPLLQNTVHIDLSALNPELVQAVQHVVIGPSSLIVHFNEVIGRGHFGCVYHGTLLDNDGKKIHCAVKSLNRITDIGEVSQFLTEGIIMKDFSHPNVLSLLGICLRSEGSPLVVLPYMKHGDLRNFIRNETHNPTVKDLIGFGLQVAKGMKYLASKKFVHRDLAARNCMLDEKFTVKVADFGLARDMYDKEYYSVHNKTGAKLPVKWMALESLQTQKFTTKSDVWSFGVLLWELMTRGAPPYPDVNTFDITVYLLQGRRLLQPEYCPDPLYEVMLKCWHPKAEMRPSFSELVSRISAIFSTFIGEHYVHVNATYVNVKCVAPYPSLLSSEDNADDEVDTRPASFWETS

Epidermal growth factor receptor (Homo sapiens), sequence (P00533 whole entry): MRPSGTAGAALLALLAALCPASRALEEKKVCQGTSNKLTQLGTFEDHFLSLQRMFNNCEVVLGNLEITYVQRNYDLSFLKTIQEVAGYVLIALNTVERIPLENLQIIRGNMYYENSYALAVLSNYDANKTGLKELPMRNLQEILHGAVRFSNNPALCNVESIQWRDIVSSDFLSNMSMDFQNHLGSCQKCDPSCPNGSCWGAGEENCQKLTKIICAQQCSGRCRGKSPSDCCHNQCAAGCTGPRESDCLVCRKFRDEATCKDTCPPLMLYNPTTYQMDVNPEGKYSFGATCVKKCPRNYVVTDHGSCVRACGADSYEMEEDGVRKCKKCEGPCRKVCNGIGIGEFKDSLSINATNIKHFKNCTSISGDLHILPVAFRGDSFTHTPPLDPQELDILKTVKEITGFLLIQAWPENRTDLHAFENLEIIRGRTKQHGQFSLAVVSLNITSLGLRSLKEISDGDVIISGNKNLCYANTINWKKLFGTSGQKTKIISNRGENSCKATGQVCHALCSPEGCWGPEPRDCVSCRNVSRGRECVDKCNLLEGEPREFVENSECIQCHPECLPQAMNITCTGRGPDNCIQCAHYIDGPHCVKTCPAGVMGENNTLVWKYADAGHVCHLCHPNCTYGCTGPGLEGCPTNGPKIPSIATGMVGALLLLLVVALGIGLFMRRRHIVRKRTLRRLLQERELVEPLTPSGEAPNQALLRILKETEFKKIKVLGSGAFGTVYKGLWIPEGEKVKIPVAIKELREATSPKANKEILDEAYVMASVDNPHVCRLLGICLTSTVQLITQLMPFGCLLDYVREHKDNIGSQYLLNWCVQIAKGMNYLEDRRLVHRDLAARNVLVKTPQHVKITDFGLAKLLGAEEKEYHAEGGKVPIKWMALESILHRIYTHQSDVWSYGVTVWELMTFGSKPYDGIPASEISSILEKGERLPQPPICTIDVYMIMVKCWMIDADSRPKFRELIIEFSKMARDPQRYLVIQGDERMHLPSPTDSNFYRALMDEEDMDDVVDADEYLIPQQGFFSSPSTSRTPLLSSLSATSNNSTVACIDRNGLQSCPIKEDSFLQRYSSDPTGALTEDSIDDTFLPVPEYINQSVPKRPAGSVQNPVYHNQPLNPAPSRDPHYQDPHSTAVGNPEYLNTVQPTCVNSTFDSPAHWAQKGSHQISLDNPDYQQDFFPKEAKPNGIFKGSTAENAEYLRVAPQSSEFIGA

- Activity [1]: Active
- Activity [2]: Active
Compound: O=C(Nc1cccc(-c2nc(-c3ccc(NC(=O)c4cccnc4)cc3Cl)no2)c1)Nc1ccc(NC(=O)C2CC2)c(C(F)(F)F)c1
